In patent publication EP0407583A1, “DERIVATIVES OF DICHLOR[…] ACYLAMIDO[…] AND INSECTICIDAL, FU[…] HEMATOCIDAL PREPARATIONS BASED ON THEM” (priority 1989, dated 1990):

Assays:
[1] = system: Candida albicans; assay: Fungicidal activity, laboratory test on Sabouraud medium; assay type: cell-based; details: composition 0.01 % by mass in distilled water
[2] = system: Candida albicans; assay: Fungicidal activity, large-scale test on contaminated surfaces and fabrics; assay type: cell-based; details: composition 0.01 % by mass; surfaces of ceramics, metal, wood, rubber, fabrics
Description: (§1) The large-scale tests were carried out by using Candida albicans and Candida tropicalis strains 2-day culture of which was diluted with an isotonic solution of sodium chloride to the concentration of 5x10^7 cells in 1 ml.
(§2) The suspended cell culture was applied onto the surface (7 mm in diameter) of articles made of ceramics, metal, wood and rubber as well as cotton, flannel woollen fabrics which were presterillized.
(§3) In a day after incubating from the treated surfaces, the washings were taken with a cotton-gauze tampon wetted with Sabouraud^ts liquid medium, immersed into the tubes with a similar medium and placed into a thermostat at 37 °C for two days. Thereafter, the inoculum was introduced in Sabouraud's stiff agar, and the growth records were made by a conventional procedure.

[3] = system: Candida tropicalis; assay: as above; assay type: cell-based; details: composition 0.01 % by mass; surfaces of ceramics, metal, wood, rubber, fabrics
Description: as §1, §2, §3

[4] = system: Candida tropicalis; assay: Fungicidal activity, laboratory test on Sabouraud medium; assay type: cell-based; details: composition 0.01 % by mass in distilled water
Description: A fungicidal composition based on this compound was prepared which was a solution of it in distilled water at the concentration pf 0.01 % by mass. A fungicidal activity of the composition, according to the invention, was tested in laboratory conditions for inhibiting the growth of fungi such as Candida tropicalis affecting the macosal and skin coats, and internals.
To this, the Petri dishes containing the Sabouraud growth medium were inoculated with a suspension of microorganisms at the concentration of 5x10^7 cells of fungi in 1 ml.
The restricted surface areas (7 mm in diameter) were coated with the composition by means of a small metal spatula 4x4 mm in size. In a day of incubating at 37 °C in a thermostat, the composition inhibited the growth of yeast--like fungi. An antifungal activity of the composition was specified by a method of 10-fold serial dilution using Sabouraud's liquid medium in 2 ml of which 2x10^5 cells were introduced. After two days of incubation in the thermostat at 34 °C, a minimum dilution of the substance exerting a fungicidal effect was determined.

[5] = Toxicity LD50 of the compound; assay type: in vivo; details: species and route not given
[6] = Solubility (qualitative); details: water, alcohols, acetone
[7] = system: mice and rats; details: for mice and rats; cited from earlier work

Compound	Inhibition of growth of fungal colonies, % Candida albicans tests laboratory [1]	Inhibition of growth of fungal colonies, % Candida albicans tests large-scale [2]	Inhibition of growth of fungal colonies, % Candida tropicalis tests large-scale [3]	Inhibition of growth of fungal colonies, % Candida tropicalis tests laboratory [4]	LD50 [5]	solubility [6]	LD50 [7]
O=C(NP(=O)(Sc1ccc(Cl)cc1)Sc1ccc(Cl)cc1)C(Cl)(Cl)CCl [Example 9, di--para-chlorothiophenyl ether of α, α,β-trichloropropio- nylamidophosphoric acid]	100%	100%	100%	100%	670 ml/k^g	soluble in water, alcohols, acetone	–
COP(=O)(OC)C(O)C(Cl)(Cl)Cl (stereo not shown) [Known composition, 0,0-dimethyl(1-hydroxy-2,2,2-trichloroethyl)phosphonate]	–	–	–	–	–	–	225 to 1200 mg/kg
